Test results as given in patent US20020058048A1, “TOPICAL CAPSAICIN PREPARATION” (priority 1998, published 2002).
Several values for one entry are separate records, joined by “and”; a condition that tells them apart may be missing. Equal values may be shown once.

Tests used:
hind-limb of rats = experiment: Withdrawal latency to thermal stimuli (42° C. water bath) of hind-limb in rats during sensitization by capsaicin; assay type: in vivo, rat; settings: 0.1% capsaicin solution; for Withdrawal latency time, One hour after appln.: 42° C. water bath; for Withdrawal latency time, Before appln.: baseline before application
Protocol: 1. 0.1% capsaicin solutions containing varying amount of polyoxyethylene (60) hydrogenated castor oil were prepared by dissolving 0.1 g of capsaicin and 0, 3, 9 or 18g of the surfactant in 26.4 ml of ethanol and then diluting with distilled water q.s. to make a total volume of 100 ml.
Each of 0.1% capsaicin solution thus prepared was applied to the hind-limb of rats. One hour after the application, the limb was placed in a water bath warmed at 42° C. and the length of time (in seconds) elapsed until when the rat withdrew the treated limb from the water bath was determined. […]

cornea of rats = experiment: Eye-wiping reflex caused by capsaicin applied to the cornea (eye-wiping method of Jancso); assay type: in vivo, rat; settings: for Number of wiping, Second: challenge with 0.1% capsaicin solution without surfactant 2 hours after pretreatment with 0.1% capsaicin
Text: 2. The effect of polyoxyethylene (60) hydrogenated castor oil on the eye-wiping reflex caused by capsaicin and the desensitization to chemical stimuli was studied according to the eye-wiping method reported by Jancso N. et al., in “Direct evidence for neurogenic inflammation and its prevention by denervation and by pretreatment with capsaicin”, Br. J. Phamac. Chemother. 31: 138-151, 1967.
When one drop of 0.1% capsaicin solution was applied to the cornea of rats, the animal immediately began to wipe the cornea with front paws and continued the wiping for about 1 minute.
See, Table 2. […] See, Table 3.
4. The effect of various surfactants on the desensitization of sensory nerves by 0.1% capsaicin was evaluated using the procedure of Test 2.

[1] = polyoxyethylene (60) hydrogenated castor oil 0%
[2] = polyoxyethylene (60) hydrogenated castor oil 3%
[3] = polyoxyethylene (60) hydrogenated castor oil 9%
[4] = polyoxyethylene (60) hydrogenated castor oil 18%

## COc1cc(CNC(=O)CCCC/C=C/C(C)C)ccc1O [capsaicin]
hind-limb of rats; [1]
  Withdrawal latency time, One hour after appln.: remarkably shortened and 2.45 ± 0.32 sec.
  Withdrawal latency time, Before appln.: 30 ± 0 s
hind-limb of rats; [2]
  Withdrawal latency time, One hour after appln.: slightly shortened and 20.29 ± 4.18 sec.
  Withdrawal latency time, Before appln.: 30 ± 0 s
hind-limb of rats; [3]
  Withdrawal latency time, One hour after appln.: not affected significantly and 30 ± 0 sec.
  Withdrawal latency time, Before appln.: 30 ± 0 s
hind-limb of rats; [4]
  Withdrawal latency time, One hour after appln.: not affected significantly and 27.28 ± 2.35 sec.
  Withdrawal latency time, Before appln.: 30 ± 0 s
Cornea of rats; surfactant 0%
  Number of wiping, Second: significantly reduced and 9.7 ± 1.6
Cornea of rats; surfactant 3%
  Number of wiping, Second: significantly reduced and 11.5 ± 0.9
Cornea of rats; surfactant 9%
  Number of wiping, Second: significantly reduced and 13 ± 0.7
Cornea of rats; surfactant 18%
  Number of wiping, Second: significantly reduced and 11.7 ± 0.6
Cornea of rats; one drop applied to the cornea of rats
  Duration of wiping of the cornea with front paws: about 1 minute
Cornea of rats; pretreatment drop of 0.1% capsaicin solution with surfactant 0%
  Number of wiping, First: 21.5 ± 1.6
Cornea of rats; pretreatment drop of 0.1% capsaicin solution with surfactant 3%
  Number of wiping, First: not virtually affected and 24 ± 2.1
Cornea of rats; pretreatment drop of 0.1% capsaicin solution with surfactant 9%
  Number of wiping, First: not virtually affected and 23.5 ± 1.1
Cornea of rats; pretreatment drop of 0.1% capsaicin solution with surfactant 18%
  Number of wiping, First: not virtually affected and 22 ± 1.4
